14 compounds from patent publication US8273769B2, “Phenoxy acetic acid derivatives” (Merck Serono SA, priority 2009, dated 2012) can be followed below.

One may read the IC50 as the concentration at which inhibition is half-maximal. What is called EC50 is the concentration that produces a half-maximal response. In general, Emax refers to the greatest response seen or fitted, relative to the assay's reference.

Each structure is given as a SMILES string.

For test [1], the system named is eosinophils in human whole blood. The test is described as follows: PGD2-induced eosinophil cell shape assay in human whole blood. Conditions: 10 nM PGD2 final, flow cytometry. It counts as cell-based. Here is the method:
The Compounds of Formula (I) were diluted in dimethylsulphoxide so that the total volume of dimethylsulfoxide was kept constant at 2% dimethylsulphoxide (Me2SO). Serial dilutions of 200 μM to 0.09 μM were prepared. Samples of 90 μl of human blood from healthy volunteers (Centre de Transfusion Sanguine de Genève) were pre-incubated in polypropylene Falcon tubes (BD 352063) for 20 minutes in a water bath at 37° C. with 10 μl of diluted compounds. For CRTH2 activation, 100 μl PGD2 (Cayman 12010) at 20 nM was added (10 nM final) to each tube and cells were maintained at 37° C. For negative control cells were treated with PBS. After 10 minutes, cell activation was stopped with 120 μl Formaldehyde 10% (4% final, Fluka 41650) and cells were rested for 10 minutes at room temperature. Fixed cells were transferred into polypropylene tubes and then treated for 1 hour in a water bath at 37° C. with 2 ml of Triton-Surfact-Amps X-100 (Pierce 28314) at 0.166% (0.13% Triton final). After several washes with PBS (red cells lysed progressively during washes, two washes are necessary), cells were analyzed by flow cytometry on a FACSCalibur. In one embodiment, the compounds of Formula (I) of the present invention are capable of blocking the cell shape change of eosinophils induced by PGD2 in Whole Blood.

Test [2] addresses T1, CRTH2 (Homo sapiens, UniProt Q9Y5Y4).
T1 sequence (Q9Y5Y4 1-395): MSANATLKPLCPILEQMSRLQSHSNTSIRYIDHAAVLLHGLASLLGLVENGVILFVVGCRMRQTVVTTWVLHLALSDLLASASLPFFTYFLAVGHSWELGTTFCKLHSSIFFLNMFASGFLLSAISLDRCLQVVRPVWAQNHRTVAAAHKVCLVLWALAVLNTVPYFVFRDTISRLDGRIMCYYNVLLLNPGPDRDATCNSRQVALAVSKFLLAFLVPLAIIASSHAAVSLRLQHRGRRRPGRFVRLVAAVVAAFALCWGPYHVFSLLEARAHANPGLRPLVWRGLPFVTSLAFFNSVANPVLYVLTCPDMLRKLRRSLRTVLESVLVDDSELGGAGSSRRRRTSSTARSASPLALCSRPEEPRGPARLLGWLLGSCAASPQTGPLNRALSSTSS
The test can be described thus: Radioligand binding Scintillation Proximity Assay ([3H]PGD2, hCRTH2-CHO cell membranes). On the set-up: host or cells: CHO cells. The following applies: 1.5 nM [3H]PGD2, hCRTH2-CHO cell membranes, SPA. The method, boiled down: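 SPA competition binding at room temperature, 90 min with agitation: 1.5 nM [3H]PGD2, 10-50 μg/ml hCRTH2-CHO membrane protein, WGA SPA beads, HEPES pH 7.4 with 10 mM MnCl2, 1% DMSO. Non-specific binding defined with 10 μM PGD2; scintillation counting.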

The target in test [3] is T1, CRTH2. The test is described as follows: [35S]GTPγS binding assay (CHO-CRTH2 cell membranes). The following applies: for IC50: antagonist mode, fixed concentration of PGD2 (EC80). It counts as biochemical. Also noted: expressed in transfected cells; host or cells: CHO-CRTH2 cells. How it is done: Adherent CHO cells expressing hCRTH2 (Euroscreen, Belgium) were cultured in 225 cm^2 cell culture flasks (Corning, USA) in 30 ml of medium. After two rinses of phosphate buffered saline (PBS), cells were harvested in 10 ml of PBS containing 1 mM EDTA, centrifuged at 500×g for 5 min at 4° C. and frozen at −80° C. The pellet was re-suspended in 50 mM Tris-HCl, pH 7.4, 2 mM EDTA, 250 mM Sucrose, containing protease inhibitor cocktail tablets, (Complete EDTA-free, Roche, Germany) and incubated 30 min at 4° C. Cells were disrupted by nitrogen cavitation (Parr Instruments, USA) at 4° C. (800 p.s.i. for 30 min), and centrifuged at 500×g for 10 min at 4° C. Pellet containing nuclei and cellular debris was discarded and supernatant was centrifuged 60 min at 4° C. at 45000×g. Membrane pellet was re-suspended in storage buffer (10 mM HEPES/KOH pH 7.4, 1 mM EDTA, 250 mM sucrose, protease inhibitor cocktail tablets) using Dounce homogenization and frozen in liquid nitrogen, and stored at −80° C.
The [^35S]GTPγS assay measures the increase in guanine nucleotide exchange at G-proteins in cell membranes, resulting from agonist (PGD2) binding to CRTH2. This process can be monitored in vitro by incubating cell membranes containing G-proteins and CRTH2 with GDP and [^35S]GTPγS, a radiolabeled, hydrolysis-resistant analogue of GTP (see, Harrison et al., Life Sciences 74, 489-508, 2003). The addition of a Compounds of Formula (I) results in binding to CRTH2 and thus in an inhibition of agonist binding, which can be monitored as inhibition of the stimulation of GTP/GDP exchange.
Briefly, Compounds of Formula (I) are incubated in 96-well scintillating white polystyrene plates (Perkin Elmer, USA) in a final volume of 200 μl containing 20 mM HEPES/KOH pH 7.4, 3 mM MgCl2, 10 μg/ml Saponin, 5 μM GDP, 75 mM NaCl and 2% of dimethylsulphoxide (DMSO). Reaction is triggered by the addition of 5-10 μg of CHO-CRTH2 cell membranes and 0.15 nM [^35S]GTPγS. After 60 min incubation at 30° C., reaction is stopped by centrifugation at 700×g, at 4° C. for 10 minutes and supernatant is removed. The radioactivity coming from the [^35S]GTPγS bound on centrifuged cell membranes is recorded using a 1450 Micro-beta scintillation counter. For IC50 determination, increasing concentrations of compounds are incubated in presence of a fixed concentration of PGD2 (EC80). For EC50 measurements, compounds are incubated without addition of PGD2. Basal [^35S]GTPγS activity is determined without addition of any ligands or compounds. 100% [^35S]GTPγS activity is measured by the addition of 1 μM of PGD2.

In test [4] the target is T1, CRTH2. The test can be described thus: Cellular Dielectric Spectroscopy (CHO-CRTH2 cells). It counts as cell-based. Also noted: expressed in transfected cells; host or cells: CHO-CRTH2 cells. Conditions: for EC50 / Emax: partial agonists, agonist activity without PGD2; for IC50: antagonist mode, fixed concentration of PGD2 (EC80). How it is done:
Cellular Dielectric Spectroscopy (CDS) is a label-free technology based on the measurement of complex impedance changes (delta Z or dZ). Impedance (Z) is related to the ratio of voltage to current as described by Ohm's law (Z=V/I). In order to measure the changes in impedance that occur in response to receptor stimulation, mammalian cells are seeded onto a custom 96-well microliter plate that contains electrodes at the bottom of each well. Key contributors to the impedance measurements are changes in cell-substrate adherence, changes in cell shape and volume, and changes in cell-cell interactions. These factors individually or collectively affect the flow of current, influencing the magnitude and characteristics of the signal measured. G-protein coupled receptors ligand-induced activity can be measured using this technology and specific G protein coupling can be identified. Activities of reference agonist and antagonist molecules of CRTH2 have been measured using this assay and similar results were obtained compared to different functional assays.
CHO-CRTH2 cells are cultured in HAM's F12 (Lonza, Switzerland) supplemented with 10% foetal calf serum (PAA, Australia) and 400 μg/ml Geneticin. 100000 cells/well are seeded in standard 96W Microplates (MDS Analytical Technologies) and incubated at 37° C. in 5% CO2 for 24 hours. Cells are washed twice with 135 μl of cell key buffer (Hank's Balanced Salt Solution 1× (HBSS) (Invitrogen) supplemented with 10 mM HEPES pH 7.4 in presence of 1% DMSO). For EC50 determination. 15 μl of increasing concentration of Compounds of Formula (I) diluted in cell key buffer are added to the cells and agonist activity is then recorded for 25 minutes. […] Results are expressed as the amplitude between the highest and the lowest signal produced (max-min). Basal and maximum activities are measured, respectively in absence or presence of PGD2 (EC80).

In the case of `CS(=O)(=O)c1ccc(F)c(C#Cc2cc(C#N)ccc2OCC(=O)O)c1` [Example 58, (4-cyano-2-{[2-fluoro-5-(methylsulfonyl)phenyl]ethynyl}phenoxy)acetic acid], the IC50 was found to be 95 nM in test [1], 14 nM in test [2] and 34 nM in test [3]. The compound also yielded a concentration giving a half-maximal response (EC50) in test [4] of 6 nM. The Emax in test [4] came out at 32%.
On to `CS(=O)(=O)c1ccc(Cl)c(C#Cc2cc(Cl)ccc2OCC(=O)O)c1` [Example 59, (4-chloro-2-{[2-chloro-5-(methylsulfonyl)phenyl]ethynyl}phenoxy)acetic acid], for which the half-inhibitory concentration (IC50) in test [2] amounted to 6 nM; in test [3], 6 nM; in test [4], 14 nM.
In the case of `O=C(O)COc1ccc(Cl)cc1C#Cc1ccc(CO)cc1F` [Example 26, (4-chloro-2-{[2-fluoro-4-(hydroxymethyl)phenyl]ethynyl}phenoxy)acetic acid], the values for the IC50 in test [1], in test [2] and in test [3] were 679 nM, 28 nM and 140 nM, respectively.
`Cc1ccc(S(=O)(=O)c2ccccc2)cc1C#Cc1cc(Cl)ccc1OCC(=O)O` [Example 95, (4-chloro-2-{[2-methyl-5-(phenylsulfonyl)phenyl]ethynyl}phenoxy)acetic acid]: the IC50 was 9 nM in test [2], 10 nM in test [3] and 84 nM in test [4]. Besides, the Emax in test [3] (inverse agonists, 100% of Emax = activity with 1 μM PGD2) is -17%.
As to `COCCNS(=O)(=O)c1ccc(C)c(C#Cc2cc(Cl)ccc2OCC(=O)O)c1` [Example 117, {4-chloro-2-[(5-{[(2-methoxyethyl)amino]sulfonyl}-2-methylphenyl)ethynyl]phenoxy}acetic acid], the results for the half-maximal inhibitory concentration (IC50) in test [1] and in test [2] were 88 nM and 5 nM, respectively.
The corresponding values for `Cc1ccc(S(=O)(=O)CC(C)C)cc1C#Cc1cc(C#N)ccc1OCC(=O)O` [Example 65, (4-cyano-2-{[5-(isobutylsulfonyl)-2-methylphenyl]ethynyl}phenoxy)acetic acid] are 123 nM and 9 nM.
`Cc1ccc(S(=O)(=O)N(C)C)cc1C#Cc1cc(Cl)ccc1OCC(=O)O` [Example 83, [4-chloro-2-({5-[(dimethylamino)sulfonyl]-2-methylphenyl}ethynyl)phenoxy]acetic acid]: the IC50 was found to be 77 nM in test [1] and 7 nM in test [2].
In the case of `CCCc1ccc(S(C)(=O)=O)cc1C#Cc1cc(C#N)ccc1OCC(=O)O` [Example 56, (4-cyano-2-{[5-(methylsulfonyl)-2-propylphenyl]ethynyl}phenoxy)acetic acid], the 50% inhibitory concentration (IC50) in test [2] stood at 30 nM; in test [3] it was 49 nM; in test [4], 53 nM.
`CCCc1ccc(S(C)(=O)=O)cc1C#Cc1cc(Cl)ccc1OCC(=O)O` [Example 49, (4-chloro-2-{[5-(methylsulfonyl)-2-propylphenyl]ethynyl}phenoxy)acetic acid]: the values for the IC50 in test [1] and in test [2] were 1190 nM and 11 nM, respectively.
On to `Cc1ccncc1C#Cc1cc(C#N)ccc1OCC(=O)O` [Example 44, {4-cyano-2-[(4-methylpyridin-3-yl)ethynyl]phenoxy}acetic acid], for which the half-maximal inhibitory concentration (IC50) in test [2] came out at 60 nM. Further, the Emax was determined as 13% in test [3] (partial agonist, without PGD2, 100% = activity with 1 μM PGD2) and 59% in test [4]. The half-maximal effective concentration (EC50) in test [3] (partial agonist, without addition of PGD2) came out at 40 nM; in test [4], 115 nM.
For `CCCc1ccncc1C#Cc1cc(Cl)ccc1OCC(=O)O` [Example 42, {4-chloro-2-[(4-propylpyridin-3-yl)ethynyl]phenoxy}acetic acid], the IC50 turned out to be 5 nM in test [2], 10 nM in test [3] and 25 nM in test [4].
Take `Cc1ccc(S(C)(=O)=O)cc1C#Cc1cc(Cl)ccc1OCC(=O)O` [Example 33, (4-chloro-2-{[2-methyl-5-(methylsulfonyl)phenyl]ethynyl}phenoxy)acetic acid]: the IC50 in test [1] was 64 nM; in test [2], 9 nM.
On to `CCc1ccc(S(C)(=O)=O)cc1C#Cc1cc(Cl)ccc1OCC(=O)O` [Example 100, (4-chloro-2-{[2-ethyl-5-(methylsulfonyl)phenyl]ethynyl}phenoxy)acetic acid], for which the IC50 in test [1] is 100 nM; in test [2] it was 3 nM; in test [4] it was 23 nM.
On to `COCCN(C)S(=O)(=O)c1ccc(C)c(C#Cc2cc(Cl)ccc2OCC(=O)O)c1` [Example 109, {4-chloro-2-[(5-{[(2-methoxyethyl)(methyl)amino]sulfonyl}-2-methylphenyl)ethynyl]phenoxy}acetic acid], for which the IC50 in test [1] worked out at 77 nM; in test [2] it was 5 nM.
